# Patent publication US10981875B2, “Quinolone-based compounds with anticancer activity” (Regents of the University of Minnesota, priority 2016, dated 2021)
# Like-named read-outs stand apart in the source and are kept apart here.
# Experiments:
# [1] = molecular target: T1, human topoisomerase I (Homo sapiens, UniProt P11387); experiment: Topoisomerase I relaxation assay (human); format: biochemical
# T1 sequence (P11387 1-765): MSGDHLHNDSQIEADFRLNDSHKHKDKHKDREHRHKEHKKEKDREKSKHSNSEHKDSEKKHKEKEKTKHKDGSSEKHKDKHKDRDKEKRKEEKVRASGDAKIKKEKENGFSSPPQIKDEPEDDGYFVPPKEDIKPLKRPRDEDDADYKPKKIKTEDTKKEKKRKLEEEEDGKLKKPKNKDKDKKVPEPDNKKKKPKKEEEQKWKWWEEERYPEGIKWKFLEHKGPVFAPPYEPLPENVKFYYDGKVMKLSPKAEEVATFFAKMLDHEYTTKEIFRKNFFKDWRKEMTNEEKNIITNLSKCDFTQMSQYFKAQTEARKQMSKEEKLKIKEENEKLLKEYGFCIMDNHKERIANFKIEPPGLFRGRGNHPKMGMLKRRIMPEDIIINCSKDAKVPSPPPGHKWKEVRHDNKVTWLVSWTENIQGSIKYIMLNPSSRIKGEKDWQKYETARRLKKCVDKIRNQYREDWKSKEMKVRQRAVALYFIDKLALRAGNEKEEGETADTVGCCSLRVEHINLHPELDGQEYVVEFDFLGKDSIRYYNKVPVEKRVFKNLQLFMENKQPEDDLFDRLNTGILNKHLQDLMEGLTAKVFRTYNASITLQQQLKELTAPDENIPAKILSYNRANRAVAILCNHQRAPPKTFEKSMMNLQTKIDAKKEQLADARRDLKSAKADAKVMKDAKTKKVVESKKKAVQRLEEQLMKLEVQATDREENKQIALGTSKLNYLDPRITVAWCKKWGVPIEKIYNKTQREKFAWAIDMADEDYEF
# [2] = system: colon (HT-29) and leukemia (K-562) cell lines; experiment: MTT anti-proliferative assay; format: cell-based; details: HT-29 and K-562
# Protocol: An MTT assay was performed with 277 and with the following compounds:
# [drawing 68] against colon (HT-29) and leukemia (K-562) cell lines to determine their in vitro anti-proliferative activities.
# [3] = molecular target: T2, human topoisomerase II (Homo sapiens, UniProt P11388); experiment: DNA cleavage assay (topoisomerase II poisoning); format: biochemical; details: various concentrations; FIG. 1
# Text: (§1) Topoisomerase poisoning results in the accumulation of covalent topoisomerase-DNA complexes, which can be detected as the generation of nicked and/or linear DNA in DNA cleavage assays. Poisoning of human topoisomerase II generate double-strand breaks that lead to the development of therapy-related acute myeloid leukemia.
# [4] = molecular target: T3, calf topoisomerase I (Bos taurus, UniProt F1MN93); experiment: Topoisomerase I relaxation assay (calf); format: biochemical; details: Table 1, calf enzyme, read-out: Topo I (c) IC50 (converted)
# T3 sequence (F1MN93 1-767): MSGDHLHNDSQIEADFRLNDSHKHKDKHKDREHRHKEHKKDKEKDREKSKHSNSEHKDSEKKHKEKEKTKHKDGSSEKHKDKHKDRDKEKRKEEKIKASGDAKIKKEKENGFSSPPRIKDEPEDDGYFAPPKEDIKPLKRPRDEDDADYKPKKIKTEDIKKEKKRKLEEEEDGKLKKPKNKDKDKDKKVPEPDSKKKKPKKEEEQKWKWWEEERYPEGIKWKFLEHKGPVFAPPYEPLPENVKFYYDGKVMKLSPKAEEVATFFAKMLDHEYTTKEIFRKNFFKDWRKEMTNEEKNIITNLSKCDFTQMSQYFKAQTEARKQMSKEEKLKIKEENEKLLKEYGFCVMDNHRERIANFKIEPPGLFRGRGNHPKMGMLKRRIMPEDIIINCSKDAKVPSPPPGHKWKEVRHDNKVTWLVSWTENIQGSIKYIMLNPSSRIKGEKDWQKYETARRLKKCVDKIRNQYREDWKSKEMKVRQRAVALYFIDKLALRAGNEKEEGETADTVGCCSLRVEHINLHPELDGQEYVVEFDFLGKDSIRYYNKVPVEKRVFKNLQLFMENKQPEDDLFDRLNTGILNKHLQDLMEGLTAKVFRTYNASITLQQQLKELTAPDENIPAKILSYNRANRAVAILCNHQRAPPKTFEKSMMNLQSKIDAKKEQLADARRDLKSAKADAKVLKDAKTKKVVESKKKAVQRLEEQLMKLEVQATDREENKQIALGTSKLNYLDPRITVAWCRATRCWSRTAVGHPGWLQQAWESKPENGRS
# [5] = system: colon cancer (HT-29) xenograft; experiment: Colon cancer (HT-29) xenograft efficacy study; format: in vivo, mice; details: 3-week treatment, FIG. 2
# Protocol: (§2) In vivo toxicity studies were performed to establish the maximum tolerated dose of 217 and 227 in mice. […] A proof of concept efficacy study was also conducted in mice with 217 and 227. Based on the in vitro susceptibility to 217 and 227, and the availability of the established xenograft models, a colon cancer (HT-29) xenograft model was used.
# [6] = system: mammalian topoisomerase I; experiment: Topoisomerase I poisoning (DNA cleavage); format: biochemical
# Text: as §1
# [7] = In vivo toxicity study (maximum tolerated dose); details: daily intraperitoneal, up to 30 mg/kg for 3 weeks
# Protocol: as §2
# [8] = molecular target: T2, human topoisomerase II; experiment: Topoisomerase II decatenation assay; format: biochemical
# [9] = molecular target: E. coli DNA gyrase (Escherichia coli, UniProt P0AES4+P0AES6); experiment: DNA gyrase supercoiling assay; format: biochemical; details: Table 1
# [10] = system: 60 cancer cell lines; experiment: NCI 60 DTP Human Tumor Cell Line Screen; format: cell-based; details: for GI50: Homo sapiens, against the 60 cancer cell lines; for comparison of GI50 and LD50 values with etoposide (NCI's COMPARE program): majority of the 60 cancer cell lines; for mean growth: single dose (10 μM) screening
# Text: Both 217 and 227 were submitted to the NCI for the 60 DTP Human Tumor Cell Line Screen.
# [11] = Aqueous solubility; format: physicochemical
# [12] = Table 2, relaxation assay, read-out: Topo I IC50
# [13] = Table 1, human enzyme, relaxation assay, read-out: Topo I (h) IC50
# [14] = read-out: IC50 human topoisomerase I in the relaxation assay
# [15] = Table 1, decatenation assay, read-out: Topo II IC50
# [16] = Table 2, decatenation assay, read-out: Topo II IC50
# [17] = read-out: IC50 human topoisomerase II in the decatenation assay
# T2 sequence (P11388 whole entry): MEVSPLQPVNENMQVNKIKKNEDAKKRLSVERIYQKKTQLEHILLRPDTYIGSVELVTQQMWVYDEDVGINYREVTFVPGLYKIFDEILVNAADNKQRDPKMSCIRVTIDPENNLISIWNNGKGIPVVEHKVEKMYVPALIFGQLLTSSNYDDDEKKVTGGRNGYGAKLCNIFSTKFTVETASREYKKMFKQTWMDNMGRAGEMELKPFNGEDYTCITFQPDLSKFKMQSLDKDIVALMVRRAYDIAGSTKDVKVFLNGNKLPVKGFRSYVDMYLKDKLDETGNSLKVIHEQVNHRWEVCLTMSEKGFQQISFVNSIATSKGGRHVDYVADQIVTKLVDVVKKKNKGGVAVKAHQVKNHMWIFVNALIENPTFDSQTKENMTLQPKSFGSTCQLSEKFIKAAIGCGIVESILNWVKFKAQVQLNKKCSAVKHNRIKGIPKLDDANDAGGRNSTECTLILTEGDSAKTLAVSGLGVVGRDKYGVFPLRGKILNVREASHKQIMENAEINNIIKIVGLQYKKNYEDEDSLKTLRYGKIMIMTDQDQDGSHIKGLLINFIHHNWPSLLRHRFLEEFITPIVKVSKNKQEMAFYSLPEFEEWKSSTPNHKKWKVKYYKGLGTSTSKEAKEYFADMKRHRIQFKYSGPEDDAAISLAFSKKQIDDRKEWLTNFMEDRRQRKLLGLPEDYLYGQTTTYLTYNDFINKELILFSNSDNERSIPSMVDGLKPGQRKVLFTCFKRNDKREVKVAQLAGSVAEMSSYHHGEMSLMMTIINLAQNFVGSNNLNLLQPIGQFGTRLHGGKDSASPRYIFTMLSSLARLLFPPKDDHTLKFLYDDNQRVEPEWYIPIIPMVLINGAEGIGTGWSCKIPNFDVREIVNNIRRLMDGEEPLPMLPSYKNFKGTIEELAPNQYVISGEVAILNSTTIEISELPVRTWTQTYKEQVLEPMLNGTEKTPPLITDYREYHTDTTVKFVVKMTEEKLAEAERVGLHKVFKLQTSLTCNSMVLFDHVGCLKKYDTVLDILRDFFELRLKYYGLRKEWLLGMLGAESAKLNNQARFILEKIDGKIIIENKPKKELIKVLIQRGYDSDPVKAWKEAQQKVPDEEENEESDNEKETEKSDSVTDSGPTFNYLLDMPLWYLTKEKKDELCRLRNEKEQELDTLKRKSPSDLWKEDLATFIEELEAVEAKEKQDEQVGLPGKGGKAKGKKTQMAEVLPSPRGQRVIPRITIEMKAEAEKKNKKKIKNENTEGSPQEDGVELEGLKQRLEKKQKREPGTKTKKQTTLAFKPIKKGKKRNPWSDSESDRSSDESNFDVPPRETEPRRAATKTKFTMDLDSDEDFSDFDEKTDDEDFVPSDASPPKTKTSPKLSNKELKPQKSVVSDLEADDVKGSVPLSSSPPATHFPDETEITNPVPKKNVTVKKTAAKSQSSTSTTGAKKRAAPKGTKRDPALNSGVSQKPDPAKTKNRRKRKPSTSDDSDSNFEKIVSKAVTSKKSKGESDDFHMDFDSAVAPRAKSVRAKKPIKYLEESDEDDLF
# E. coli DNA gyrase, sequence (P0AES4 whole entry, one chain of several): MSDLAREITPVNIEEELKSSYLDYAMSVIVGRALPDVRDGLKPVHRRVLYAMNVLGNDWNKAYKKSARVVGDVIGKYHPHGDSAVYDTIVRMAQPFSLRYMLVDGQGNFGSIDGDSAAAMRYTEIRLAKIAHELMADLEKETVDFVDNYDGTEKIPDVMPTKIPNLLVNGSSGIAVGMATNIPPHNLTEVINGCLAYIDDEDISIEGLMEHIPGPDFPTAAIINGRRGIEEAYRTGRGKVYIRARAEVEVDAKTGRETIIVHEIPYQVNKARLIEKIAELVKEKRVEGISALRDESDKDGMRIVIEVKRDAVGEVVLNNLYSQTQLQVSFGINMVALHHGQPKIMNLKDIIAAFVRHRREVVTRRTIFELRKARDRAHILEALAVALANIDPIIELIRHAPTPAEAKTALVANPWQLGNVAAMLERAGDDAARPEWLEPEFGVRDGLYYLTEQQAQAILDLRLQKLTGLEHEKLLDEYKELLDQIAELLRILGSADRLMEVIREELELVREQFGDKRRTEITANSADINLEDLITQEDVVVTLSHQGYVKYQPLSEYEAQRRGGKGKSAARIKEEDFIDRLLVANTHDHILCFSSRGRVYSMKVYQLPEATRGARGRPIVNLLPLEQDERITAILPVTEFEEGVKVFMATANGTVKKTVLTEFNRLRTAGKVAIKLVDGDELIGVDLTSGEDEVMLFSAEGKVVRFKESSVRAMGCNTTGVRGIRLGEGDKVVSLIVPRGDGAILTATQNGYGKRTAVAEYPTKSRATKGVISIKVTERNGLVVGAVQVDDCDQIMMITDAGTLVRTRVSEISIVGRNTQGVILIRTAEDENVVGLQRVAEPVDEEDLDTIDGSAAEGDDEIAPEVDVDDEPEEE
smiles,measurement,setting,value
COc1c(N2C[C@@H]3CCCN[C@@H]3C2)c(F)cc2c(=O)c(C(=O)O)cn(Cc3ccc4ccccc4c3)c12 [Compound 213],IC50,[1]; [12],127.9 ± 0.8 µM
COc1c(N2CCNCC2)c(F)cc2c(=O)c(C(=O)O)cn(Cc3ccc(-c4ccccc4)cc3)c12 [Compound 207],IC50,[1]; [12],54.2 ± 3.2 µM
COc1c(N2C[C@@H]3CCCN[C@@H]3C2)c(F)cc2c(=O)c(C(=O)O)cn(Cc3ccc(-c4ccccc4)cc3)c12 [Compound 205],IC50,[1]; [12],44.4 ± 0.8 µM
NC[C@@H]1CCN(c2cc3c(cc2F)c(=O)c(C(=O)O)cn3Cc2ccc(-c3ccccc3)cc2)C1 [Compound 065],"anti-proliferative activity, fold higher than that of 217",[2],2-5 fold
"COc1c(N2CC[C@@H](CN)C2)c(F)cc2c(=O)c(C(=O)O)cn(Cc3ccc4ccccc4c3)c12 [Compound 227, (S)-7-(3-(aminomethyl)pyrrolidin-1-yl)-6-fluoro-8-methoxy-1-(naphthalen-2-ylmethyl)-4-oxo-1,4-dihydroquinoline-3-carboxylic acid]",increase in the amounts of linear DNA,[3],did not detect any significant increase (two-fold or less)
same,IC50,[4],66.6 µM
same,IC50,[1]; [13],43.7 ± 0.6 µM
same,IC50,[1]; [14],43.1 µM
same,inhibition of colon cancer proliferation in vivo,[5],exhibited activity but was not as effective as 217
same,poisoning of mammalian topoisomerase I,[6],did not poison mammalian topoisomerase I
same,effect on animal weight gain,[7],did not have any significant effect on animal weight gain
same,tolerability,[7],well-tolerated
same,IC50,[8]; [15],165 ± 20.2 µM
same,IC50,[8]; [16],165 ± 20.2 µM
same,IC50,[8]; [17],165 µM
same,IC50,[9],> 200 µM
same,GI50,[10],3.1 µM
same,comparison of GI50 and LD50 values with etoposide (NCI's COMPARE program),[10],significantly more effective than etoposide
same,mean growth,[10],44.1%
same,aqueous solubility,[11],limited aqueous solubility
COc1c(N2CCNCC2)c(F)cc2c(=O)c(C(=O)O)cn(Cc3ccc4ccccc4c3)c12 [Compound 215],IC50,[1]; [12],132 ± 3.5 µM
NC[C@@H]1CCN(c2cc3c(cc2F)c(=O)n(N)c(=O)n3Cc2ccc3ccccc3c2)C1 [Compound 213a],IC50,[1]; [12],59 ± 2.9 µM
NC[C@@H]1CCN(c2cc3c(cc2F)c(=O)n(N)c(=O)n3Cc2ccc(-c3ccccc3)cc2)C1 [Compound 215a],IC50,[1]; [12],25.9 ± 5.4 µM
"COc1c(N2CC[C@@H](CN)C2)c(F)cc2c(=O)c(C(=O)O)cn(Cc3ccc(-c4ccccc4)cc3)c12 [Compound 217, (S)-1-([1,1′-biphenyl]-4-ylmethyl)-7-(3-(aminomethyl)pyrrolidin-1-yl)-6-fluoro-8-methoxy-4-oxo-1,4-dihydroquinoline-3-carboxylic acid]",increase in the amounts of linear DNA,[3],did not detect any significant increase (two-fold or less)
same,IC50,[4],32.2 µM
same,IC50,[1]; [13],26 ± 0.5 µM
same,IC50,[1]; [14],26.5 µM
same,inhibition of colon cancer proliferation in vivo,[5],inhibited the proliferation of colon cancer in vivo as well as fluorouracil (5-FU)
same,poisoning of mammalian topoisomerase I,[6],did not poison mammalian topoisomerase I
same,effect on animal weight gain,[7],did not have any significant effect on animal weight gain
same,tolerability,[7],well-tolerated
same,IC50,[8]; [15],128 ± 4.7 µM
same,IC50,[8]; [16],128 ± 4.7 µM
same,IC50,[8]; [17],128 µM
same,IC50,[9],1370 ± 10.1 µM
same,GI50,[10],1.9 µM
same,comparison of GI50 and LD50 values with etoposide (NCI's COMPARE program),[10],significantly more effective than etoposide
same,mean growth,[10],40.3%
same,aqueous solubility,[11],limited aqueous solubility
